Each block holds one compound with its values, some of them ahead of it. Where a SMILES comes first, the peptide text is derived from it.
Experiments:
[1] = molecular target: T1, Type-2 angiotensin II receptor (Rattus norvegicus, UniProt P35351); experiment: Inhibition of rat AT2 receptor
T1 sequence (P35351 whole entry): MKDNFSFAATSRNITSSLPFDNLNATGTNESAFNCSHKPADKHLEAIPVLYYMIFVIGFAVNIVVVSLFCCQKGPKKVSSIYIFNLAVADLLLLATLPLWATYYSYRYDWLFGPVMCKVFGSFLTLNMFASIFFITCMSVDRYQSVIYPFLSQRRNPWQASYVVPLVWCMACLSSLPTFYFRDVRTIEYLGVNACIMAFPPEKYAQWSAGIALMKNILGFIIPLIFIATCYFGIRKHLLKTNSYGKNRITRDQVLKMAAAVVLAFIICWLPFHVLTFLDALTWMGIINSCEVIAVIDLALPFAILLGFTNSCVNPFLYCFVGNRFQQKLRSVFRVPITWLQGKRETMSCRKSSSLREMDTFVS

[2] = molecular target: T2, Type-1 angiotensin II receptor A (Rattus norvegicus, UniProt P25095); experiment: Inhibition of rat AT1 receptor
T2 sequence (P25095 whole entry): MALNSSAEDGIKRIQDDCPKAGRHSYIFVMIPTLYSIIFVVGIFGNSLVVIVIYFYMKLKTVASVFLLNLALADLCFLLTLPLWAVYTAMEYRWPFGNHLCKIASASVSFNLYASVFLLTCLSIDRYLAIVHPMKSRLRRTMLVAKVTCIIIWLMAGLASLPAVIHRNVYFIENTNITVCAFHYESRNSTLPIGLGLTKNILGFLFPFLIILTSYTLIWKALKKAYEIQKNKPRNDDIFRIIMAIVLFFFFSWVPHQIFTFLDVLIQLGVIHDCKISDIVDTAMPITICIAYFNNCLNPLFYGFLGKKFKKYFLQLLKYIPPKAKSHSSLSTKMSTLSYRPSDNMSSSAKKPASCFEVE

[3] = molecular target: T2, Type-1 angiotensin II receptor A; experiment: Displacement of [125I]Ang II from AT1 receptor in rat liver membranes; format: cell membranes
[4] = Displacement of [125I]Ang II from AT2 receptor in pig uterus membranes; format: cell membranes, Sus scrofa
[5] = molecular target: T3, Type-1 angiotensin II receptor (Homo sapiens, UniProt P30556); experiment: Inhibition of human AT1 receptor
T3 sequence (P30556 whole entry): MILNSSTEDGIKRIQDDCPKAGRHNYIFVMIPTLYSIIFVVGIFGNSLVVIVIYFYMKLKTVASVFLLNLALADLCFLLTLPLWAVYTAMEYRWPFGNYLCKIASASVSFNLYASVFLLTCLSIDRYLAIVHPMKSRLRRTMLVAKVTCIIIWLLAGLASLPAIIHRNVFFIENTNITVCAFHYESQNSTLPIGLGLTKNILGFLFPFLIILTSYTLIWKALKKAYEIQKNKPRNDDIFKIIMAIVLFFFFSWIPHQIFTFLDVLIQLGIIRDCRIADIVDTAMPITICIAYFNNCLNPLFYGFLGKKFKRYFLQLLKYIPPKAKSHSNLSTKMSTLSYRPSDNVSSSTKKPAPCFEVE

Proto-oncogene Mas [6] = molecular target: T4, Proto-oncogene Mas (Homo sapiens, UniProt P04201); experiment: Agonist activity at N-terminal c-Myc tagged human MasR expressed in HEK293T cells assessed as reduction in forskolin-induced cAMP accumulation; format: functional, cell-based
T4 sequence (P04201 whole entry): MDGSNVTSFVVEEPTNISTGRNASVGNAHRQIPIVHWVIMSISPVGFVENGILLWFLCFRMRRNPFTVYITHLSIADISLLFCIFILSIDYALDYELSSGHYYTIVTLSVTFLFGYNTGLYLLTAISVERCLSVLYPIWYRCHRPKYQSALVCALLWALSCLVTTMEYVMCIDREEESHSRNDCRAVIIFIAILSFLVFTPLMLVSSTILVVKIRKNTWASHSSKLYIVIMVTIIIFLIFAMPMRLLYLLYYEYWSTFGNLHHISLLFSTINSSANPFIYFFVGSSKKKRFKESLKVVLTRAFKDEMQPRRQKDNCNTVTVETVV

Proto-oncogene Mas [7] = molecular target: T4, Proto-oncogene Mas; experiment: Antagonist activity at N-terminal c-Myc tagged human MasR expressed in HEK293T cells by cAMP accumulation based assay; format: functional, cell-based
[8] = molecular target: T2, Type-1 angiotensin II receptor A; experiment: Displacement of [125I]Ang II from AT1 receptor in rat SMC membranes incubated for 60 mins by gamma counting method; format: cell membranes

SMILES: COc1ccc2c(c1OCc1ccccc1)CC(C(=O)O)N(C(=O)C(c1ccccc1)c1ccccc1)C2 (stereo not drawn)
IC50 [1]: 0.0752 µM
IC50 [2]: 2900 µM

SMILES: Cc1cc(Cn2cnc3c2C[C@@H](C(=O)O)N(C(=O)C(c2ccccc2)c2ccccc2)C3)ccc1N(C)C
Ki [5]: 0.012 µM

SMILES: COc1ccc2c(c1OCc1ccccc1)C[C@H](C(=O)O)N(C(=O)C(c1ccccc1)c1ccccc1)C2
IC50 [5]: 1.1 µM

SMILES: CC[C@H](C)[C@H](NC(=O)[C@@H]1CCCN1C(=O)[C@H](Cc1c[nH]cn1)NC(=O)[C@H](CCCCNC(=O)[C@H](CCCN=C(N)N)NC(=O)OCc1ccccc1)NC(=O)[C@H](Cc1ccc(O)cc1)NC(=O)c1cccnc1)C(=O)O (HELM PEPTIDE1{[O=C(c1cccnc1)[*:2]].Y.K.H.P.I}|PEPTIDE2{[O=C(OCc1ccccc1)[*:2]].R}$PEPTIDE1,PEPTIDE2,3:R3-2:R2$$$V2.0)
Ki [8]: 1.7 µM

SMILES: COc1ccc2c(c1OCc1ccccc1)C[C@@H](C(=O)O)N(C(=O)C(c1ccccc1)c1ccccc1)C2 [OLODANRIGAN]
IC50 [5]: 0.039 µM

The next lines start with the values.

Ki [3]: 0.0039 µM
Ki [4]: 0.0028 µM
SMILES: CCCCOC(=O)NS(=O)(=O)c1sc(CC(C)C)cc1-c1ccc(Cn2c(CC)nc3c(C)cc(C)nc32)cc1

IC50 [3]: 0.0014 µM
IC50 [4]: 0.101 µM
SMILES: CCCCOC(=O)NS(=O)(=O)c1ccc(Cc2cccc(OC)c2)cc1-c1ccc(Cn2c(CC)nc3c(C)cc(C)nc32)cc1

IC50 (Proto-oncogene Mas [6]): 0.021 µM
SMILES: CCNC(=O)NS(=O)(=O)c1sc(CC(C)C)cc1-c1ccc(Cn2c(-c3ccccc3)nc(OC)c2C=O)cc1

IC50 (Proto-oncogene Mas [7]): 0.0003 µM
SMILES: CC[C@H](C)[C@H](NC(=O)[C@H](Cc1ccc(O)cc1)NC(=O)[C@@H](NC(=O)[C@H](CCCNC(=N)N)NC(=O)[C@@H](N)CC(=O)O)C(C)C)C(=O)N[C@@H](Cc1cnc[nH]1)C(=O)N[C@H](C)C(=O)O (HELM PEPTIDE1{D.R.V.Y.I.H.[dA]}$$$$V2.0)

Ki [3]: > 10 µM
SMILES: CCCCOC(=O)NS(=O)(=O)c1sc(CC(C)C)cc1-c1ccc(Cn2ccnc2)cc1 [BULOXIBUTID]
